Values after ≈ are worked out from the molar mass of the structure shown.
Legend:
[1] = target: T1, gp120/CD4 interaction (Human immunodeficiency virus type 1 group M subtype B, UniProt P03375); experiment: cell-based
[2] = tested on: HeLa CD4 LTR β-gal cells; experiment: HIV attachment inhibition assay (β-galactosidase chemiluminescence)
[3] = target: T1, gp120/CD4 interaction
[4] = tested on: HeLa CD4 LTR β-gal cells; experiment: Compound toxicity in HeLa CD4 LTR β-gal cells (XTT)

With `COc1cc(-c2ccc(/N=N/c3ccc4c(S(=O)(=O)O)cc(S(=O)(=O)O)c(N)c4c3O)c(OC)c2)ccc1/N=N/c1ccc2c(S(=O)(=O)O)cc(S(=O)(=O)O)c(N)c2c1O` [Chicago Sky Blue] the IC50 [1] was 2280 nM, the IC50 ([2]; Human immunodeficiency virus 1, HeLa) was 0.53 µg/mL (≈ 0.586 µM) and the “TI (=IC50/TC50)” value ([2]; general virus attachment) was >18. The “TI (=IC50/TC50)” value [3] was >5, the TC50 ([4]; Table 10, XTT sister plate) was >10 µg/mL and the TC50 ([4]; Table 11) was >10 µg/mL.
